Results as given in publication PMC9574050, “Design, synthesis, and insecticidal activity of a novel series of flupyrimin analogs bearing 1-aryl-1H-pyrazol-4-yl subunits” (Frontiers in Chemistry, 2022).

Experiments:
Assay type in all cases: in vivo
Aphis craccivora = assay: Insecticidal activity against Aphis craccivora (Potter spray tower); details: 400 μg/mL, counted 24 h later, read-out: Mortality rate (%) A. craccivora
Method: (§1) Preparation of test agent. Dissolve accurately weighed tested compound in DMF to prepare 1% mother liquor, and then dilute it with distilled water containing 0.1% Tween-80 to corresponding concentrations for later use.
Insecticidal activity against Aphis craccivora ([Liu et al., 2022]). About 30 nymphs of alfalfa aphid were placed on a horsebean leaf dish, and then 2.5 ml of the tested agent was sprayed with Potter spray tower. After treatment, they were cultured in an observation room at 20–22°C. The result was counted 24 h later, and the no-response insect body when it was lightly touched with tweezers was regarded as dead. Each treatment was repeated three times, and DMF without the tested compound was used as a blank control.
(§2) The insecticidal activities of the test compounds against the abovementioned five insects were calculated by the following formula: P1=(K/N)×100, (1) P2=(Pt−P0)/(1−P0)×100, (2) where P1 is the mortality rate; K is the dead insect number; N is the total number of experimental insects; P2 is the corrected mortality rate; Pt is the mortality rate of treatment; P0 is the mortality rate of CK. If the mortality rate of CK is less than 5%, without the required correction, and if the mortality rate of CK is between 5 and 20%, P2 should be calculated according to formula II.

Nilaparvata lugens = assay: Insecticidal activity against Nilaparvata lugens (Potter spray tower); details: 24 h, 3rd instar nymphae, 1 day after treatment, read-out: Mortality rate (%) N. lugens; for mortality at 400 µg/mL: 400 μg/mL
Source text: as §1
Insecticidal activity against Nilaparvata lugens ([Ghareeb et al., 2021]). The seedlings with two leaves and one heart were placed in a Petri dish with a bottom diameter of 3 cm and covered with white sand. After the 3rd instar nymphae of N. lugens were stunned by CO2, about 15 nymphae were received in each dish, and then 2.5 ml of the tested agent was sprayed with Potter spray tower. The mortality of N. lugens was investigated 1 day after the treatment. Each treatment was repeated three times, and DMF without the tested compound was used as a blank control.
as §2

Plutella xylostella = assay: Insecticidal activity against Plutella xylostella (soaking method); details: Plutella xylostella, 48 h, 2nd instar larvae, counted 2 days later, read-out: Mortality rate (%) P. xylostella; for mortality at 400 µg/mL: 400 μg/mL; for mortality at 25 µg/mL: 25 μg/mL; for mortality at 100 µg/mL: 100 μg/mL
Source text: as §1
Insecticidal activity against Plutella xylostella ([Yang et al., 2021]). The soaking method was adopted. After soaking a proper amount of radish leaves for 10 s, it was placed in a plastic Petri dish with filter paper and dried naturally in the shade. Each dish was inoculated with 10 2nd instar P. xylostella larvae and placed in an observation room at 22°C with light (16/8 h). The result was counted 2 days later, and the no-response insect body when it was lightly touched with a brush was regarded as dead. Each treatment was repeated three times, and DMF without the tested compound was used as a blank control.
as §2

Chilo suppressalis = assay: Insecticidal activity against Chilo suppressalis (soaking method); details: 96 h, 400 μg/mL, 3rd instar larvae, counted 4 days later, read-out: Mortality rate (%) C. suppressalis
Source text: as §1
Insecticidal activity against Chilo suppressalis ([Huang et al., 2022]). The soaking method was adopted. The Zizania latifolia slices were soaked in a tested solution for 10 s, then taken out, and placed in a plastic Petri dish with filter paper to naturally dry in the shade. […] The result was counted 4 days later, and the no-response insect body when it was lightly touched with a brush was regarded as dead. Each treatment was repeated three times, and DMF without the tested compound was used as a blank control.
as §2

Helicoverpa armigera = assay: Insecticidal activity against Helicoverpa armigera (soaking method); details: Helicoverpa armigera, 48 h; 400 μg/mL; 2nd instar larvae; counted 2 days later; read-out: Mortality rate (%) H. armigera
Source text: as §1
Insecticidal activity against Helicoverpa armigera. The soaking method was adopted ([Yang et al., 2022]). After soaking a proper amount of corn leaves for 10 s, they were placed in a plastic Petri dish with filter paper and dried naturally in the shade. Ten larvae of the 2nd instar H. armigera were attached to each dish and placed in an observation room at 26°C with light (16/8 h). The result was counted 2 days later, and the no-response insect body when it was lightly touched with a brush was regarded as dead. Each treatment was repeated 3 times, and DMF without the tested compound was used as a blank control.
as §2

SMILES | mortality at 400 µg/mL (Aphis craccivora) | mortality at 400 µg/mL (Nilaparvata lugens) | mortality at 400 µg/mL (Plutella xylostella) | mortality at 400 µg/mL (Chilo suppressalis) | mortality at 400 µg/mL (Helicoverpa armigera) | mortality at 25 µg/mL (Plutella xylostella) | mortality at 100 µg/mL (Plutella xylostella) | mortality at 100 µg/mL (Nilaparvata lugens; 100 μg/mL)
O=C(/N=c1\ccccn1Cc1cnn(-c2ccc(C(F)(F)F)cc2)c1C(F)(F)F)C(F)(F)F [Compound A5, (E)-2,2,2-trifluoro-N-(1-((5-(trifluoromethyl)-1-(4-(trifluoromethyl)phenyl)-1H-pyrazol-4-yl)methyl)pyridin-2(1H)-ylidene)acetamide] | 0% | 0% | 73.3% | 0% | 0% |  |  | 
COCC(=O)/N=c1\ccccn1Cc1cnn(-c2ccccc2Cl)c1C(F)(F)F [Compound B2, (E)-N-(1-((1-(2-chlorophenyl)-5-(trifluoromethyl)-1H-pyrazol-4-yl)methyl)pyridin-2(1H)-ylidene)-2-methoxyacetamide] | 0% | 0% | 100% | 0% | 0% | > 70% | 96.7% | 
COCC(=O)/N=c1\ccccn1Cc1cnn(-c2cccc(F)c2)c1C(F)(F)F [Compound B3, (E)-N-(1-((1-(3-fluorophenyl)-5-(trifluoromethyl)-1H-pyrazol-4-yl)methyl)pyridin-2(1H)-ylidene)-2-methoxyacetamide] | 0% | 0% | 100% | 0% | 0% | > 70% | 100% | 
COCC(=O)/N=c1\ccccn1Cc1cnn(-c2ccc(F)cc2)c1C(F)F [Compound B8, (E)-N-(1-((5-(difluoromethyl)-1-(4-fluorophenyl)-1H-pyrazol-4-yl)methyl)pyridin-2(1H)-ylidene)-2-methoxyacetamide] | 0% | 0% | 56.7% | 0% | 0% |  |  | 
O=C(/N=c1\ccccn1Cc1cnn(-c2ccc(Cl)cc2)c1C(F)(F)F)C(F)(F)C(F)(F)F [Compound C4, (E)-N-(1-((1-(4-chlorophenyl)-5-(trifluoromethyl)-1H-pyrazol-4-yl)methyl)pyridin-2(1H)-ylidene)-2,2,3,3,3-pentafluoropropanamide] | 0% | 0% | 73.3% | 0% | 0% |  |  | 
O=C(/N=c1\ccccn1Cc1cnn(-c2ccc(F)cc2)c1C(F)F)C(F)(F)F [Compound A8, (E)-N-(1-((5-(difluoromethyl)-1-(4-fluorophenyl)-1H-pyrazol-4-yl)methyl)pyridin-2(1H)-ylidene)-2,2,2-trifluoroacetamide] | 0% | 0% | 0% | 0% | 0% |  |  | 
O=C(/N=c1\ccccn1Cc1cnn(-c2ccccc2)c1C(F)(F)F)C(F)(F)F [Compound A1, (E)-2,2,2-trifluoro-N-(1-((1-phenyl-5-(trifluoromethyl)-1H-pyrazol-4-yl)methyl)pyridin-2(1H)-ylidene)acetamide] | 0% | 0% | 76.7% | 0% | 0% |  |  | 
O=C(/N=c1\ccccn1Cc1cnn(-c2ccc(Cl)cc2)c1C(F)(F)F)C(F)(F)F [Compound A4, (E)-N-(1-((1-(4-chlorophenyl)-5-(trifluoromethyl)-1H-pyrazol-4-yl)methyl)pyridin-2(1H)-ylidene)-2,2,2-trifluoroacetamide] | 0% | 0% | 0% | 0% | 0% |  |  | 
O=C(/N=c1\ccccn1Cc1cnn(-c2cccc(F)c2)c1C(F)(F)F)C(F)(F)C(F)(F)F [Compound C3, (E)-2,2,3,3,3-pentafluoro-N-(1-((1-(3-fluorophenyl)-5-(trifluoromethyl)-1H-pyrazol-4-yl)methyl)pyridin-2(1H)-ylidene)propanamide] | 0% | 0% | 76.7% | 0% | 0% |  |  | 
O=C(/N=c1\ccccn1Cc1cnn(-c2cccc(Cl)c2)c1C(F)F)C(F)(F)C(F)(F)F [Compound C6, (E)-N-(1-((1-(3-chlorophenyl)-5-(difluoromethyl)-1H-pyrazol-4-yl)methyl)pyridin-2(1H)-ylidene)-2,2,3,3,3-pentafluoropropanamide] | 0% | 0% | 60% | 0% | 0% |  |  | 
Cn1cc(C(=O)/N=c2\ccccn2Cc2cnn(-c3ccc(Cl)cc3)c2C(F)(F)F)c(C(F)F)n1 [Compound D4, (E)-N-(1-((1-(4-chlorophenyl)-5-(trifluoromethyl)-1H-pyrazol-4-yl)methyl)pyridin-2(1H)-ylidene)-3-(difluoromethyl)-1-methyl-1H-pyrazole-4-carboxamide] | 0% | 0% | 100% | 0% | 0% | 6.7% | 60% | 
O=C(/N=c1\ccccn1Cc1cnn(-c2cccc(F)c2)c1C(F)F)C(F)(F)C(F)(F)F [Compound C7, (E)-N-(1-((5-(difluoromethyl)-1-(3-fluorophenyl)-1H-pyrazol-4-yl)methyl)pyridin-2(1H)-ylidene)-2,2,3,3,3-pentafluoropropanamide] | 0% | 0% | 66.7% | 40% | 0% |  |  | 
Cn1cc(C(=O)/N=c2\ccccn2Cc2cnn(-c3ccccc3Cl)c2C(F)(F)F)c(C(F)F)n1 [Compound D2, (E)-N-(1-((1-(2-chlorophenyl)-5-(trifluoromethyl)-1H-pyrazol-4-yl)methyl)pyridin-2(1H)-ylidene)-3-(difluoromethyl)-1-methyl-1H-pyrazole-4-carboxamide] | 0% | 0% | 43.3% | 0% | 0% |  |  | 
Cn1cc(C(=O)/N=c2\ccccn2Cc2cnn(-c3cccc(Cl)c3)c2C(F)F)c(C(F)F)n1 [Compound D6, (E)-N-(1-((1-(3-chlorophenyl)-5-(difluoromethyl)-1H-pyrazol-4-yl)methyl)pyridin-2(1H)-ylidene)-3-(difluoromethyl)-1-methyl-1H-pyrazole-4-carboxamide] | 0% | 100% | 100% | 0% | 0% | 56.7% | 100% | 0%
COCC(=O)/N=c1\ccccn1Cc1cnn(-c2ccc(C(F)(F)F)cc2)c1C(F)(F)F [Compound B5, (E)-2-methoxy-N-(1-((5-(trifluoromethyl)-1-(4-(trifluoromethyl)phenyl)-1H-pyrazol-4-yl)methyl)pyridin-2(1H)-ylidene)acetamide] | 0% | 0% | 100% | 0% | 0% | 0% | 100% | 
